Measurements: patent US20230158102A1 (priority 2020, published 2023)
Where two headings read alike, the source gives them in different places.

Columns and labels:
in vitro = settings: African green monkey
SARS-CoV-2 [1] = test: Transgenic K18-hACE2 mice infected with SARS-CoV-2; assay type: in vivo
[2] = Storage stability of plitidepsin vials and reconstituted solution; assay type: physicochemical
Description: Plitidepsin will be labelled with the study protocol code, the batch number, the content, the expiry date, the storage conditions, the name of the investigator and the sponsor. The study drug will be labelled in accordance with Annex 13 of the European Good Manufacturing Practices. Plitidepsin should be stored between 2° C. and 8° C. and the vials should be kept in the outer carton to protect them from light. The drug in these conditions is stable for 60 months.
After reconstitution of the 2 mg plitidepsin vial with 4 ml of the solution for reconstitution of macrogolglycerol ricinoleate/ethanol/water for injection, the reconstituted solution should be diluted and used immediately after preparation. If not used immediately, storage times and conditions until use are the responsibility of the user. […] If storage is required before administration, solutions should be stored refrigerated and protected from light and should be used within 24 hours after reconstitution.

eEF1A = molecular target: T1, eEF1A (Oryctolagus cuniculus, UniProt Q71V39); settings: 14C-plitidepsin, eEF1A purified from rabbit muscle; cited from earlier work
T1 construct: eEF1A purified from rabbit muscle; from tissue; host or cells: rabbit muscle
T1 sequence (Q71V39 whole entry): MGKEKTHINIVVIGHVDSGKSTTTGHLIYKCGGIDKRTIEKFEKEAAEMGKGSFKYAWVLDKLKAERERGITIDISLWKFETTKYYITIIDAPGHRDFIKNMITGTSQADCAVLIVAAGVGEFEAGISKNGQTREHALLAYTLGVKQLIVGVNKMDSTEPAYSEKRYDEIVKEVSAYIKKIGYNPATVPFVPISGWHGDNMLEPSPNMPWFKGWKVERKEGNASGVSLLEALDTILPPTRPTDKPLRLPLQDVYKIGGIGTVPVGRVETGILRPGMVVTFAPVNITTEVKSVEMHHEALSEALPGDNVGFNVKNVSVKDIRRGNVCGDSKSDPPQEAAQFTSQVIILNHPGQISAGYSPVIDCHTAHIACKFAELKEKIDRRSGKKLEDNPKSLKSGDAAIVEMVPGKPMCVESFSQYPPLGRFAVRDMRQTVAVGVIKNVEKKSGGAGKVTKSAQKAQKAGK

Vero E6 cells = settings: Vero E6, absence of virus, 3 days
NFκB = settings: tumour cells, early in vitro studies; cited from earlier work
[3] = cancer patients, single-agent plitidepsin; cited from earlier work
HCoV-229E = assay type: cell-based
SARS-CoV-2 (COVID-19) = test: Study APLICOV-PC (NCT04382066): efficacy in patients hospitalised for COVID-19; assay type: in vivo, human; settings: for Patients discharged from hospital by Day 8, (%): 192 h; for Patients discharged from hospital by Day 31, (%) / Patients requiring oxygen therapy at Day 31, (%): 744 h
CD45+ cells = test: Ex vivo cytokine expression (IL 6, IL 10, TNFα) in LPS-B5 stimulated CD45+ cells from broncho-alveolar lavages of treated mice; settings: CD45+ cells from plitidepsin treated mice
Description: An ex vivo study assessed the effect of plitidepsin on expression of the cytokines IL 6, IL 10, and TNFα in the lungs of mice.

THP-1 cells = test: Proinflammatory cytokine secretion in stimulated THP-1 cells; assay type: cell-based; settings: THP-1 cells stimulated with pathogen-associated molecular patterns-mimicking compounds
Description: In vitro studies were performed using THP-1 cells, a spontaneously immortalised monocyte-like cell line derived from the peripheral blood of a childhood case of acute monocytic leukaemia, that is widely used for investigating monocyte structure and function.

SARS-CoV-2 [4] = test: SARS-CoV-2 replication in human stem cell-derived pneumocyte like cells; assay type: cell-based; settings: 10 nm plitidepsin for 1 hour before infection (4×10^4 pfu), 48 hour incubation
Description: Several in vitro experiments aimed at determining the effect of plitidepsin on SARS-CoV-2 were carried out and are disclosed herein. […] In another study, human stem cell-derived pneumocyte like cells were prophylactically exposed to 10 nm plitidepsin for 1 hour and then infected with SARS-CoV-2 (4×10^4 plaque forming units). After a 48 hour incubation period, both antiviral and cytotoxic plitidepsin effects were determined.

SARS-CoV-2 [5] = test: Mouse model of adenovirus-mediated hACE2 infected with SARS-CoV-2; assay type: in vivo

## CC[C@H](C)[C@H]1NC(=O)[C@@H](NC(=O)[C@@H](CC(C)C)N(C)C(=O)[C@@H]2CCCN2C(=O)C(C)=O)[C@@H](C)OC(=O)[C@H](Cc2ccc(OC)cc2)N(C)C(=O)[C@@H]2CCCN2C(=O)[C@H](CC(C)C)NC(=O)[C@@H](C)C(=O)[C@H](C(C)C)OC(=O)C[C@@H]1O [PLD, (−)-(3S,6R,7S,10R,11S,15S,17S,20S,25aS)-11-hydroxy-3-(4-methoxybenzyl)-2,6,17-trimethyl-15-(1-methylethyl)-7-[[(2R)-4-methyl-2-[methyl[[(2S)-1-(2-oxopropanoyl)pyrrolidin-2-yl]carbonyl]amino]pentanoyl]amino]-10-[(1S)-1-methylpropyl]-20-(2-methylpropyl)tetradecahydro-15H-pyrrolo[2,1-f]-[1,15,4,7,10,20]dioxatetrazacyclotricosine-1,4,8,13,16,18,21(17H)-heptone]
In vitro
  CC50: 178 to 431 nM
SARS-CoV-2 [1]
  Antiviral effects in vivo: potent antiviral effects in vivo
[2]; between 2° C. and 8° C., vials in the outer carton protected from light
  Stability of the drug on storage: 60 months
[2]; original vial under indoor light at room temperature
  Physical, chemical and microbiological stability of the reconstituted concentrated solution: 6 hours
[2]; refrigerated conditions (5° C.±3° C.)
  Physical, chemical and microbiological stability of the reconstituted concentrated solution: 24 hours
eEF1A
  Binding affinity: high affinity
  Rate of dissociation: low rate of dissociation
1.5, 2.0 and 2.5 mg daily for 3 days, 45 patients
  Tolerability of treatment: well tolerated
1.5-mg cohort
  Prevalence of Grade ≥3 AEs: 33.3%
2.0-mg cohort
  Prevalence of Grade ≥3 AEs: 20.0%
2.5-mg cohort
  Prevalence of Grade ≥3 AEs: 40.0
All cohorts
  Events of special interest: Grade ≥3 ALT elevation: 1 case
  Patients unable to complete plitidepsin treatment: 1 patient
All cohorts (14/45)
  Patients who experienced Grade ≥3 AEs: 31%
All cohorts, 45 patients
  Patients who experienced a treatment-related Grade ≥3 AE: 2 patients
Dosed at 1.5 mg
  Patients who experienced SAEs: 6 patients
Dosed at 2.0 mg
  Patients who experienced SAEs: 1 patients
Dosed at 2.5 mg
  Patients who experienced SAEs: 3 patients
human, in vivo
  Patients with a 2 grade increase in CPK: 1 patient
total
  Patients who experienced SAEs: 10 patients
Vero E6 cells
  Cytotoxic effects of the drug at concentrations inhibiting viral-induced cytopathic effects: no cytotoxic effects of the drug were observed
NFκB
  Effect on NFκB: induces down-regulation of NFκB
[3]
  AE asthenia/fatigue: 83%
  AE constipation: 29%
  AE diarrhoea: 31%
  AE nausea: 64%
  AE pyrexia: 28%
  AE vomiting: 38%
HCoV-229E
  Concentration as low as which an antiviral effect was induced: 0.5 nM
SARS-CoV-2 (COVID-19)
  Mean time from baseline until undetectable viral load: 11 days
  Mortality from Day 1 to Day 31, (%): (4.5) %
  Patients requiring ICU admission from Day 1 to Day 7, (%): (11.4) %
  Patients requiring ICU admission from Day 1 to Day 15, (%): (13.6) %
  Patients requiring ICU admission from Day 1 to Day 31, (%): (13.6) %
  Patients requiring invasive mechanical ventilation and/or ICU admission from Day 1 to Day 7, (%): (11.4) %
  Patients requiring invasive mechanical ventilation and/or ICU admission from Day 1 to Day 15, (%): (13.6) %
  Patients requiring invasive mechanical ventilation and/or ICU admission from Day 1 to Day 31, (%): (13.6) %
  Patients requiring noninvasive mechanical ventilation from Day 1 to Day 7, (%): (9.1) %
  Patients requiring noninvasive mechanical ventilation from Day 1 to Day 15, (%): (11.4) %
  Patients requiring noninvasive mechanical ventilation from Day 1 to Day 31, (%): (13.6) %
  Patients discharged from hospital by Day 8, (%): (56.8) %
  Patients discharged from hospital by Day 31, (%): (90.9) %
  Patients requiring oxygen therapy at Day 31, (%): (6.8) %
SARS-CoV-2 (COVID-19); 1.5 mg
  Mean time from baseline until undetectable viral load: 7 days
  Mortality from Day 1 to Day 31, (%): (7.1) %
  Patients requiring ICU admission from Day 1 to Day 7, (%): (14.3) %
  Patients requiring ICU admission from Day 1 to Day 15, (%): (14.3) %
  Patients requiring ICU admission from Day 1 to Day 31, (%): (14.3) %
  Patients requiring invasive mechanical ventilation and/or ICU admission from Day 1 to Day 7, (%): (14.3) %
  Patients requiring invasive mechanical ventilation and/or ICU admission from Day 1 to Day 15, (%): (14.3) %
  Patients requiring invasive mechanical ventilation and/or ICU admission from Day 1 to Day 31, (%): (14.3) %
  Patients requiring noninvasive mechanical ventilation from Day 1 to Day 7, (%): (21.4) %
  Patients requiring noninvasive mechanical ventilation from Day 1 to Day 15, (%): (21.4) %
  Patients requiring noninvasive mechanical ventilation from Day 1 to Day 31, (%): (21.4) %
  Patients discharged from hospital by Day 8, (%): (42.9) %
  Patients discharged from hospital by Day 31, (%): (92.9) %
SARS-CoV-2 (COVID-19); 1.5 mg, 168 h
  Patients requiring oxygen therapy at Day 7, (%): (71.4) %
SARS-CoV-2 (COVID-19); 1.5 mg, 360 h
  Patients discharged from hospital by Day 15, (%): (78.6) %
  Patients requiring oxygen therapy at Day 15, (%): (28.6) %
SARS-CoV-2 (COVID-19); 2 mg
  Mean time from baseline until undetectable viral load: 13 days
  Patients requiring ICU admission from Day 1 to Day 7, (%): (6.7) %
  Patients requiring ICU admission from Day 1 to Day 15, (%): (6.7) %
  Patients requiring ICU admission from Day 1 to Day 31, (%): (6.7) %
  Patients requiring invasive mechanical ventilation and/or ICU admission from Day 1 to Day 7, (%): (6.7) %
  Patients requiring invasive mechanical ventilation and/or ICU admission from Day 1 to Day 15, (%): (6.7) %
  Patients requiring invasive mechanical ventilation and/or ICU admission from Day 1 to Day 31, (%): (6.7) %
  Patients requiring noninvasive mechanical ventilation from Day 1 to Day 31, (%): (6.7) %
  Patients discharged from hospital by Day 8, (%): (60.0) %
  Patients discharged from hospital by Day 31, (%): (93.3) %
  Patients requiring oxygen therapy at Day 31, (%): (13.3) %
SARS-CoV-2 (COVID-19); 2 mg, 168 h
  Patients requiring oxygen therapy at Day 7, (%): (66.7) %
SARS-CoV-2 (COVID-19); 2 mg, 360 h
  Patients discharged from hospital by Day 15, (%): (93.3) %
  Patients requiring oxygen therapy at Day 15, (%): (6.7) %
SARS-CoV-2 (COVID-19); 2.5 mg
  Mean time from baseline until undetectable viral load: 12 days
  Mortality from Day 1 to Day 31, (%): (6.7) %
  Patients requiring ICU admission from Day 1 to Day 7, (%): (13.3) %
  Patients requiring ICU admission from Day 1 to Day 15, (%): (20.0) %
  Patients requiring ICU admission from Day 1 to Day 31, (%): (20.0) %
  Patients requiring invasive mechanical ventilation and/or ICU admission from Day 1 to Day 7, (%): (13.3) %
  Patients requiring invasive mechanical ventilation and/or ICU admission from Day 1 to Day 15, (%): (20.0) %
  Patients requiring invasive mechanical ventilation and/or ICU admission from Day 1 to Day 31, (%): (20.0) %
  Patients requiring noninvasive mechanical ventilation from Day 1 to Day 7, (%): (6.7) %
  Patients requiring noninvasive mechanical ventilation from Day 1 to Day 15, (%): (13.3) %
  Patients requiring noninvasive mechanical ventilation from Day 1 to Day 31, (%): (13.3) %
  Patients discharged from hospital by Day 8, (%): (66.7) %
  Patients discharged from hospital by Day 31, (%): (86.7) %
  Patients requiring oxygen therapy at Day 31, (%): (6.7) %
SARS-CoV-2 (COVID-19); 2.5 mg, 168 h
  Patients requiring oxygen therapy at Day 7, (%): (73.3) %
SARS-CoV-2 (COVID-19); 2.5 mg, 360 h
  Patients discharged from hospital by Day 15, (%): (73.3) %
  Patients requiring oxygen therapy at Day 15, (%): (26.7) %
SARS-CoV-2 (COVID-19); 168 h
  Mean reduction in viral load by Day 7: −3.1 log10 copies/mL
  Patients requiring oxygen therapy at Day 7, (%): (70.5) %
SARS-CoV-2 (COVID-19); 360 h
  Patients discharged from hospital by Day 15, (%): (81.8) %
  Patients requiring oxygen therapy at Day 15, (%): (20.5) %
  Patients with mild disease discharged by Day 15: 100%
  Patients with moderate disease discharged by Day 15: 82%
  Patients with severe disease discharged by Day 15: 57%
  Reduction in baseline viral load by Day 15: −3.0 log
SARS-CoV-2 (COVID-19); across dose cohorts
  Mean reduction in viral load by Day 15: 4.5 log10 copies/mL
CD45+ cells
  IL 6, IL 10 and TNFα production upon LPS-B5 stimulation compared with nonstimulated controls: failed to show a marked increase in IL 6, IL 10, and TNFα
THP-1 cells
  Secretion of proinflammatory cytokines: significantly reduced the secretion of the proinflammatory cytokines
SARS-CoV-2 [4]
  Replication of SARS-CoV-2: completely eliminated replication of SARS-CoV-2
SARS-CoV-2 [5]
  Antiviral effects in vivo: potent antiviral effects in vivo
